In US9334256B2, “Agents and methods for treating ischemic and other diseases” (NoNO INC., priority 2011, dated 2016):
Entries after “also recorded” stand apart in the source; their conditions may differ.

How the values were obtained:
[1] = system: rats subjected to lateral FPI; test: Rotarod performance after lateral FPI; format: in vivo, rat; conditions: FIG. 4A
Text: Thus, M21 and TRPM7 inhibitors are effective treatments to reduce the damaging effects of neurotrauma, including concussions.

neurons = test: Sublethal neuronal stretch injury model, survival by PI fluorescence; format: cell-based; conditions: applied 1 hour after stretch injury, PI fluorescence 24 hours after; FIG. 3
Experimental: Likewise, TRPM7 inhibitors are also expected to provide neuroprotection to other types of brain injuries. […] This model is described in Arundine et al, (J. Neurosci, 2004:8106-23). TRPM7 inhibitors such as M21 were applied 1 hour after stretch injury and cells were assessed for survival by PI fluorescence 24 hours after the injury. […] Thus, this assay can be predictive of in vivo efficacy.

TRPM7 = target: T1, TRPM7 (Mus musculus, UniProt Q923J1); test: PI uptake cell death assay in TRPM7-expressing HEK-293 cells (type of assay from Example 1); format: cell-based, murine; conditions: Table X
T1 construct: expressed in transfected cells; host or cells: HEK-293 tSA (HEK-293T) cells, transient transfection with Lipofectamine 2000

cancer cell lines = test: Cell proliferation studies, cancer cell lines in general; format: cell-based; conditions: summary statement
Experimental: Cells were grown to 70% confluency, trypsinized, counted, and seeded in 96-well flat-bottom plates at a final concentration of 2.5×10^3-5.0×10^3 cells/well in growth media containing 5% FBS (Day 0). Other well sizes and cell densities were used successfully as well. Cells were allowed to incubate in growth media for 24 hours to allow for maximum adhesion. Treatment with the test agent began on Day 1 and continued for 72 hours either with or without retreatment. At the 72 hour time point, viable cell numbers are quantified by the CellTiter-Glo® cell viability assay as described above, or using standard MTT, SRB or BrDU assays. Experiments were repeated at least twice with the same concentrations to determine growth inhibitory activity. […] In an alternative format, this assay was used to screen potential TRPM7 inhibitory compounds at a fixed concentration, usually 5 or 10 uM. Alternatively, lower or higher concentrations were used. […] Thus, for the compounds in Table 1, all are potential anti-cancer agents. Some, like 399 and 509, are more general and may be effective against a wide range of cancers. Others, like 2785, are more specific and may be effective against a subset of cancers.
Data Collection—For the cell proliferation studies, data from each experiment was collected and expressed as % Cell Growth using the following calculation: % Cell Growth=(ftest/fvehicle)×100 Where ftest is the luminescent signal of the tested sample, and fvehicle is the luminescence of the vehicle in which the drug is dissolved (or appropriate measure for the other viability/proliferation measures). Dose response graphs and IC50 values were generated using standard software using the following variable slope equation: […]

T1 sequence (Q923J1 whole entry): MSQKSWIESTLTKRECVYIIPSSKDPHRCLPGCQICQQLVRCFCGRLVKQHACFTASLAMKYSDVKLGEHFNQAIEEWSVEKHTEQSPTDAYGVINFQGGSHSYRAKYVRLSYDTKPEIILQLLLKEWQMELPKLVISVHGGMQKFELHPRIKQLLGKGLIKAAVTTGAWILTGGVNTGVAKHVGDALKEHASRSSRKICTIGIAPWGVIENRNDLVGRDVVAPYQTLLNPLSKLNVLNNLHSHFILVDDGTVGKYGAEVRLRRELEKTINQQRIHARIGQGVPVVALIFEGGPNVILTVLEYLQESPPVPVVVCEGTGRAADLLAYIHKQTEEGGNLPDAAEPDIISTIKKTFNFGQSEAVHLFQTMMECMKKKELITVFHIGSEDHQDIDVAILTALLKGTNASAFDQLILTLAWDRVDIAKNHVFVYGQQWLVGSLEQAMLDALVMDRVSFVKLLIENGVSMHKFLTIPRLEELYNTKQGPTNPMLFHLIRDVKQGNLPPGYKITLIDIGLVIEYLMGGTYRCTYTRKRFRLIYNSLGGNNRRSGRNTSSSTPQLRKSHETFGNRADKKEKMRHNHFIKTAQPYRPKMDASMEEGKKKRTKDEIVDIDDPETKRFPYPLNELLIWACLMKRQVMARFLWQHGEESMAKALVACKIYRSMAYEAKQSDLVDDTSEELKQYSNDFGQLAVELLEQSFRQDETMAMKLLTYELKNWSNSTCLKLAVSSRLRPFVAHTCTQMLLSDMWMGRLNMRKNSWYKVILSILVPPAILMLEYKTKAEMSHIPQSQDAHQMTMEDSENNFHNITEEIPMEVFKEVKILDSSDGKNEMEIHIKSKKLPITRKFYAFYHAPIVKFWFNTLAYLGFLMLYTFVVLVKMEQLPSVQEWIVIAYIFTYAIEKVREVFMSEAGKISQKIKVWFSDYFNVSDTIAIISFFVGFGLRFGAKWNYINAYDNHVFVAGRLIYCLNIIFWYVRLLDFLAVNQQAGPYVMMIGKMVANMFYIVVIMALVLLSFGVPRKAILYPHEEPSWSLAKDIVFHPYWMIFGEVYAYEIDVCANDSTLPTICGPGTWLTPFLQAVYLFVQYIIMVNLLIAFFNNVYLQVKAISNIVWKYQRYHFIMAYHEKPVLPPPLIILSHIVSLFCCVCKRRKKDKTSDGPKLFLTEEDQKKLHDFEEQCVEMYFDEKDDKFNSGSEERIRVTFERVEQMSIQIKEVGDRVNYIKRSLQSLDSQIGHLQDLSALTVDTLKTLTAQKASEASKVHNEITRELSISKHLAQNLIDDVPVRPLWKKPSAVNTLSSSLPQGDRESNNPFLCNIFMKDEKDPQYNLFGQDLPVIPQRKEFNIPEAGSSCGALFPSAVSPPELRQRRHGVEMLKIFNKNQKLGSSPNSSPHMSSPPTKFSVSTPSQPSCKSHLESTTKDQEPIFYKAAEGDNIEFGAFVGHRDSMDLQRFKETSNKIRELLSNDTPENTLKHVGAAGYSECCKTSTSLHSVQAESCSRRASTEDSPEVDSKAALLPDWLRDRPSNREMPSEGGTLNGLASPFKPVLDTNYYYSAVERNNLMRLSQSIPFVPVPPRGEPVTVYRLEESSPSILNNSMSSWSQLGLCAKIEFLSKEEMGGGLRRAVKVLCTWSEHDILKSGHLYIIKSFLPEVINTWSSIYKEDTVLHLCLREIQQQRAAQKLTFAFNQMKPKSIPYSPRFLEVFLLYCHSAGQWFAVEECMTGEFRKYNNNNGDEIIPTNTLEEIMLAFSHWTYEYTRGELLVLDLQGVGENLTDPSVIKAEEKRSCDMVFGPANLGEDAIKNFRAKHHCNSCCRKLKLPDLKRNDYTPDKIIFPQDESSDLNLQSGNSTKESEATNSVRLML

## Cc1c(Cc2ccc(Cl)c(Cl)c2)c(=O)oc2cc(O)ccc12 [Compound M21]
[1]
  time able to maintain balance on the Rotarod relative to injured animals treated with vehicle alone: twice the time
[1]; first day post injury, compared to FPI+Vehicle
  Rotarod performance (mean latency): near wild type levels of performance
neurons
  protection from cell death after stretch injury: can protect neurons from cell death due to stretch injuries; also recorded: increased protection from cell death
TRPM7
  IC50: 4.97 µM
Cancer cell lines
  inhibition of proliferation of cancer cell lines: effective in inhibiting proliferation of a retinoblastoma cell line
